The target of one experiment is T1, HCN3 (Homo sapiens, UniProt Q9P1Z3).
T1 construct: expressed in transfected cells
T1 sequence (Q9P1Z3 1-774): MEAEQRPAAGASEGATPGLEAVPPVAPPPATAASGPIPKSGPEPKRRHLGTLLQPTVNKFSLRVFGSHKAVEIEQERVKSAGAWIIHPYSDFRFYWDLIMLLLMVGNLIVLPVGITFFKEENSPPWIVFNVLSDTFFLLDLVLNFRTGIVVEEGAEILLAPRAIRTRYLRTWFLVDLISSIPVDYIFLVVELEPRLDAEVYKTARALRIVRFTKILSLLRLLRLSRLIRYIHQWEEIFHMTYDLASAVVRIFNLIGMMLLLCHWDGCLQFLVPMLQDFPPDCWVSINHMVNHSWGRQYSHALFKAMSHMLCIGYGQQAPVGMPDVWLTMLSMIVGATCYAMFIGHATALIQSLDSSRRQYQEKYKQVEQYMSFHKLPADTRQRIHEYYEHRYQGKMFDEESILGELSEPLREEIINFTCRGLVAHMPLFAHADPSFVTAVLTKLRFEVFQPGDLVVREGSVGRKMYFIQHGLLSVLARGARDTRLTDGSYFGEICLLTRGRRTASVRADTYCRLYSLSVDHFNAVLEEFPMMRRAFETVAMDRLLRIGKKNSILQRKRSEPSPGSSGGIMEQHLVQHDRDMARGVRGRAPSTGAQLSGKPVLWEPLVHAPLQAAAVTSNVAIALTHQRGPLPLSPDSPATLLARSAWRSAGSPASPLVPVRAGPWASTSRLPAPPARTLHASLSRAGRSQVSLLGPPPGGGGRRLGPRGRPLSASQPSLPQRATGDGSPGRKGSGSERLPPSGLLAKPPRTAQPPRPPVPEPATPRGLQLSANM
Kind of experiment: HCN3 automated patch clamp current inhibition assay (Ionworks Barracuda). Type of experiment: cell-based. The conditions noted are these: HEK-293 cells stably expressing HCN3; current inhibition during a hyperpolarizing pulse of -100 mV. As to the method:
In vitro, high-throughput cellular electrophysiology was employed to detect voltage- and use-dependence of compounds in single concentration screening and IC50 determination for library and medicinal chemistry profiling compounds in 384 well plates.
Cell cultures were maintained in DMEM/F12 cell growth media containing FBS and appropriate antibiotics at 37° C., 5% CO2 for a maximum of 20 passages. At a time point of 40-72 hours prior to assay, the expression of HCN protein in the cells is induced by addition of tetracyclin. Cells may be incubated at 27° C. for 2-24 hours of induction. […] Cells were harvested at 80% confluency and resuspended in extracellular buffer and added to wells. A freshly prepared Escin solution was added to intracellular buffer and applied to establish whole cell recording via perforated patch clampling by APC.
Currents through activated channels were measured directly by APC by employing hyperpolarizing voltage steps. The activation window was increased and stabilized by the addition of cell permeable Br-cAMP. Baselines were established for both use- and voltage-dependence protocols using a −30 mV holding potential and multiple test pulses at −100 mV or by 20 mV steps from −120 to 0 mV, respectively. Test compounds were added after baseline recordings followed by a 10 min incubation, voltage-dependency protocol recording, and use-dependency recording. Data was corrected for baseline and rundown (well based) and normalized for % inhibition (plate based). Five previously reported HCN inhibitors of varying potencies and selectivities and zatebradine were used for run to run and plate to plate quality controls. […] Percent inhibition was analysed at −80, −100, −120 mV of the voltage-dependency protocol and at pulse 0 and 50 of the use-dependency protocols. Selectivity was assessed against HCN2, HCN3, and HCN4 overexpressing cell lines using similar methods. As HCN4 has a slower activation than the other HCN channels, activation was extended to achieve steady state activation.
For orientation: Patch clamp records ionic current or voltage across a cell membrane.

Another experiment concerns the target T2, HCN1 (Homo sapiens, UniProt O60741).
T2 construct: expressed in transfected cells
T2 sequence (O60741 1-890): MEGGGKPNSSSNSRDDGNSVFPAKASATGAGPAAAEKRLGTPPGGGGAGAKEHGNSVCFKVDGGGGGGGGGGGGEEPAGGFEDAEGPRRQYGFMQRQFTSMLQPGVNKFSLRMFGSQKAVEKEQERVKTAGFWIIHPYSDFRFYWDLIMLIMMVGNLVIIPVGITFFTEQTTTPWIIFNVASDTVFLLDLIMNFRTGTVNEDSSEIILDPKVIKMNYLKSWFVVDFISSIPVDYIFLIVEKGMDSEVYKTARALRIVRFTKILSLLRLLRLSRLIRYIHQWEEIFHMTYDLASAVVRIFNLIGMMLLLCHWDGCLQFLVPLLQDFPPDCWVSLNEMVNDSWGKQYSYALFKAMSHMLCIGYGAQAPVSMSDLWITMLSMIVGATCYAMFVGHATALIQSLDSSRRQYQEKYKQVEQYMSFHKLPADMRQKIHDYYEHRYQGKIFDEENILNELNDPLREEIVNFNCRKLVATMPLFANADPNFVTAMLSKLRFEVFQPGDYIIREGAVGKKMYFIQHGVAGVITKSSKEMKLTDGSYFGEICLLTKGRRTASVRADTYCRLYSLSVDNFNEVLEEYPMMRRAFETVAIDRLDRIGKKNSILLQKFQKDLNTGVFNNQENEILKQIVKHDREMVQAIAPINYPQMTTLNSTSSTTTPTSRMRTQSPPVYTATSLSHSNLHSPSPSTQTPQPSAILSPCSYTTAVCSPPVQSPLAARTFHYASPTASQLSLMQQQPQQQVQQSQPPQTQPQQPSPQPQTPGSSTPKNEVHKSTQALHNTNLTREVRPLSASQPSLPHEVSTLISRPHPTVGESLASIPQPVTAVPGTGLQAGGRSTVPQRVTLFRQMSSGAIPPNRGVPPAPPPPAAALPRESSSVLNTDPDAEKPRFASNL
Kind of experiment: HCN1 automated patch clamp current inhibition assay (Ionworks Barracuda). Type of experiment: cell-based. The conditions noted are these: HEK-293 cells stably expressing HCN1; current inhibition during a hyperpolarizing pulse of -100 mV.

What is called IC50 is the concentration needed to halve the response being measured. Read a low IC50 as greater potency.

`Cc1ccc(-n2c(C(N)=O)nc(C#Cc3ccnc(Cl)c3C)c2C)cn1` [Example 1, 4-((2-Chloro-3-methylpyridin-4-yl)ethynyl)-5-methyl-1-(6-methylpyridin-3-yl)-1H-imidazole-2-carboxamide]: the half-maximal inhibitory concentration (IC50) at HCN3 is above 40000 nM; against HCN1 it was 159 nM.
As to `Cc1ccc(-n2c(C(N)=O)nc(C#Cc3ccnc(Cl)c3F)c2C)cn1` [Example 2, 4-((2-Chloro-3-fluoropyridin-4-yl)ethynyl)-5-methyl-1-(6-methylpyridin-3-yl)-1H-imidazole-2-carboxamide], the IC50 was above 40000 nM against HCN3 and 173 nM at HCN1.
With `Cc1ccc(-n2c(C(N)=O)nc(C#Cc3csc(Cl)c3)c2C)cn1` [Example 3, 4-[2-(5-Chlorothiophen-3-yl)ethynyl]-5-methyl-1-(6-methylpyridin-3-yl)imidazole-2-carboxamide], the results for the IC50 at HCN3 and against HCN1 were 25700 nM and 100 nM, respectively.
For `Cc1ccc(-n2c(C(N)=O)nc(C#Cc3cccc(Cl)c3)c2C)cn1` [Example 4, 4-[2-(3-Chlorophenyl)ethynyl]-5-methyl-1-(6-methyl-3-pyridyl)imidazole-2-carboxamide], the values for the IC50 against HCN3 and against HCN1 were 32800 nM and 225 nM, respectively.
The corresponding values for `Cc1ccc(-n2c(C(N)=O)nc(C#Cc3cccc(C#N)c3)c2C)cn1` [Example 5, 4-((3-Cyanophenyl)ethynyl)-5-methyl-1-(6-methylpyridin-3-yl)-1H-imidazole-2-carboxamide] are above 40000 nM and 240 nM.
On to `Cc1ccc(-n2c(C(N)=O)nc(C#Cc3ccnc(Cl)c3)c2C)cn1` [Example 6, 4-(2-Chloro-pyridin-4-ylethynyl)-5-methyl-1-(6-methyl-pyridin-3-yl)-1H-imidazole-2-carboxylic Acid Amide], for which the figures for the IC50 against HCN3 and against HCN1 were above 40000 nM and 260 nM, respectively.
In the same order, the values of `COc1cccc(C#Cc2nc(C(N)=O)n(-c3ccc(C)nc3)c2C)c1` [Example 8, 4-((3-Methoxyphenyl)ethynyl)-5-methyl-1-(6-methylpyridin-3-yl)-1H-imidazole-2-carboxamide] are 36400 nM and 460 nM.
The corresponding values for `Cc1cccc(C#Cc2nc(C(N)=O)n(-c3ccc(C)nc3)c2C)c1` [Example 10, 5-Methyl-1-(6-methylpyridin-3-yl)-4-(m-tolylethynyl)-1H-imidazole-2-carboxamide] are above 40000 nM and 579 nM.
In the same order, the values of `Cc1cnc(-n2c(C(N)=O)nc(C#Cc3ccnc(Cl)c3C)c2C)cn1` [Example 23, 4-[2-(2-Chloro-3-methyl-4-pyridyl)ethynyl]-5-methyl-1-(5-methylpyrazin-2-yl)imidazole-2-carboxamide] are 2400 nM and 303 nM.
`Cc1c(C#Cc2nc(C(N)=O)n(-c3ccc(Cl)nc3)c2C)ccnc1Cl` [Example 26, 4-[2-(2-Chloro-3-methyl-4-pyridyl)ethynyl]-1-(6-chloro-3-pyridyl)-5-methyl-imidazole-2-carboxamide]: the 50% inhibitory concentration (IC50) at HCN3 is above 40000 nM; on HCN1, 241 nM.
On to `COc1ccc(-n2c(C(N)=O)nc(C#Cc3ccnc(Cl)c3C)c2C)cn1` [Example 27, 4-[2-(2-Chloro-3-methyl-4-pyridyl)ethynyl]-1-(6-methoxy-3-pyridyl)-5-methyl-imidazole-2-carboxamide], for which the half-inhibitory concentration (IC50) against HCN3 worked out at 38400 nM; against HCN1, 51 nM.
In the case of `Cc1ccc(-n2c(C(N)=O)nc(C#Cc3ccnc(Cl)c3C)c2C)nc1` [Example 28, 4-[2-(2-Chloro-3-methyl-4-pyridyl)ethynyl]-5-methyl-1-(5-methyl-2-pyridyl)imidazole-2-carboxamide], the IC50 was above 40000 nM on HCN3 and 192 nM against HCN1.
For the compound `Cc1ccc(-n2c(C(N)=O)cc(C#Cc3ccnc(Cl)c3)c2C)cn1` [Example 31, 4-[2-(2-Chloro-4-pyridyl)ethynyl]-5-methyl-1-(6-methyl-3-pyridyl)pyrrole-2-carboxamide], the half-maximal inhibitory concentration (IC50) was found to be 23500 nM on HCN3 and 231 nM against HCN1.
In the same order, the values of `Cc1ccc(-c2c(C(N)=O)nc(C#Cc3ccnc(Cl)c3)n2C)cn1` [Example 32, 2-[2-(2-Chloro-4-pyridyl)ethynyl]-1-methyl-5-(6-methyl-3-pyridyl)imidazole-4-carboxamide] are above 40000 nM and 429 nM.
In the same order, the values of `Cc1ccc(-n2c(C(N)=O)nc(C#Cc3ccnc(Cl)c3)c2C)cc1` [Example 38, 4-[2-(2-Chloro-4-pyridyl)ethynyl]-5-methyl-1-(p-tolyl)imidazole-2-carboxamide] are above 40000 nM and 232 nM.
In the same order, the values of `Cc1c(C#Cc2ccnc(Cl)c2)nc(C(N)=O)n1-c1ccc(Cl)cc1` [Example 39, 1-(4-Chlorophenyl)-4-((2-chloropyridin-4-yl)ethynyl)-5-methyl-1H-imidazole-2-carboxamide] are above 40000 nM and 383 nM.
In the case of `NC(=O)c1nc(C#Cc2ccnc(Cl)c2)cn1-c1ccc(F)cc1` [Example 42, 4-(2-Chloro-pyridin-4-ylethynyl)-1-(4-fluoro-phenyl)-1H-imidazole-2-carboxylic Acid Amide], the figures for the IC50 against HCN3 and at HCN1 were above 40000 nM and 2520 nM, respectively.

For the origin of these results see US12528784B2, “Alkynyl-(heteroaryl)-carboxamide HCN1 inhibitors” (Hoffmann-La Roche Inc., priority 2019, dated 2026).
